Like-named read-outs stand apart in the source and are kept apart here.
Assays:
[1] = cited from earlier work
[2] = system: neuropathic pain model in the sheep; assay: Neuropathic pain model in sheep, behavior monitoring (Observer 3.0) with visual analog pain score; type: in vivo
Description: The neuropathic pain model in the sheep is created by placing four tight ligatures around the median, radial, or ulnar nerve (or a combination thereof) with 0-chromic gut suture. This method produces a chronic painful peripheral mononeuropathy which may be related to those conditions seen in humans with causalgia and reflex sympathetic dystrophy.
To evaluate animal behavior, the Observer 3.0 software (Noldus Information Technology, The Netherlands) was used to aid docmentation of a daily record of multiple traits. […] The behavior was then interpreted into a visual analog pain score (VAS), where 0 represents no pain and 100 represents severe pain.
Approximately three days prior to surgery each sheep will undergo a 15-minute baseline behavior evaluation. The observations made in this evaluation include, a computerized behavior software recording (the Observer) for 15minutes—gait monitoring—and recording of pain perception via visual analog scale-using the Observer. In some animals, recording of vital signs (blood pressure, heart rate, respirations per minute) will be performed using the Observer. Baseline values for pain perception are recorded via the mechanical stimulus device and/or behavior monitoring will also be performed at this time.
The sheep will be observed daily postoperatively. […] Observations of neuropathic pain development include changes in ambulation, alertness, appetite, urination, defecation, herding activity, body temperature and pain behaviors. This daily behavior is recorded utilizing the observer (an observational software system).

[3] = Toxicity in neuropathic pain sheep: clinical signs, necropsy, histopathology; type: in vivo; conditions: sheep #604 Clint
Description: Animals will be observed daily for any signs of clinical toxicity such as limping and loss of appetite. At necropsy the spinal cord will be examined for any gross changes. Histopathologic evaluation will be performed on all animals after drug studies are complete. These examinations will detect any neurotoxicity that may be present due to the spinal infusion of midazolam.

## COc1ccc2c3c1O[C@H]1C(=O)CC[C@@]4(O)[C@@H](C2)N(C)CC[C@]314 [Oxycodone]
[1]; route IT
  approximate equipotent dose, IT: 10
[1]; route IV
  approximate equipotent dose, IV: 200
[1]; route PO
  approximate equipotent dose, PO: 600

## CN1CC[C@]23c4c5ccc(O)c4O[C@H]2[C@@H](O)C=C[C@H]3[C@H]1C5.O=S(=O)(O)O [morphine, morphine sulfate]
[2]; Sheep #604 Clint, 6 mg Morphine per day intrathecal, first infusion period, Dec. 7, 2001, day of study 0
  Pain Score: 60%
[2]; Sheep #604 Clint, 6 mg Morphine per day intrathecal, first infusion period, Dec. 8, 2001, day of study 1
  Pain Score: 60%
[2]; Sheep #604 Clint, 6 mg Morphine per day intrathecal, first infusion period, Dec. 9, 2001, day of study 2
  Pain Score: 60%
[2]; Sheep #604 Clint, 6 mg Morphine per day intrathecal, first infusion period, Dec. 11, 2001, day of study 4
  Pain Score: 45%
[2]; Sheep #604 Clint, 6 mg Morphine per day intrathecal, first infusion period, Dec. 12, 2001, day of study 5
  Pain Score: 30%
[2]; Sheep #604 Clint, 6 mg Morphine per day intrathecal, first infusion period, Dec. 13, 2001, day of study 6
  Pain Score: 35%
[2]; Sheep #604 Clint, 6 mg Morphine per day intrathecal, first infusion period, Dec. 14, 2001, day of study 7
  Pain Score: 40%
[2]; Sheep #604 Clint, 6 mg Morphine per day intrathecal, first infusion period, Dec. 15, 2001, day of study 8
  Pain Score: 50%
[2]; Sheep #604 Clint, 6 mg Morphine per day intrathecal, first infusion period, Dec. 16, 2001, day of study 9
  Pain Score: 40%
[2]; Sheep #604 Clint, 6 mg Morphine per day intrathecal, first infusion period, Dec. 17, 2001, day of study 10
  Pain Score: 33%
[2]; Sheep #604 Clint, 6 mg Morphine per day intrathecal, first infusion period, Dec. 18, 2001, day of study 11
  Pain Score: 35%
[2]; Sheep #604 Clint, 6 mg Morphine per day intrathecal, first infusion period, Dec. 19, 2001, day of study 12
  Pain Score: 35%
[2]; Sheep #604 Clint, 6 mg Morphine per day intrathecal, first infusion period, Dec. 20, 2001, day of study printed 0, changed to saline at 1:30 PM
  Pain Score: 33%
[2]; Sheep #604 Clint, 6 mg Morphine per day intrathecal, second infusion period after saline, Dec. 29, 2001, day of study 1
  Pain Score: 50%
[2]; Sheep #604 Clint, 6 mg Morphine per day intrathecal, second infusion period after saline, Dec. 30, 2001, day of study 2
  Pain Score: 40%
[2]; Sheep #604 Clint, 6 mg Morphine per day intrathecal, second infusion period after saline, Dec. 31, 2001, day of study 3
  Pain Score: 38%
[2]; Sheep #604 Clint, 6 mg Morphine per day intrathecal, second infusion period after saline, Jan. 1, 2002, day of study 4
  Pain Score: 40%
[2]; Sheep #604 Clint, 6 mg Morphine per day intrathecal, second infusion period after saline, Jan. 2, 2002, day of study 5
  Pain Score: 30%
[2]; Sheep #604 Clint, 6 mg Morphine per day intrathecal, second infusion period after saline, Jan. 3, 2002, day of study 6
  Pain Score: 33%
[2]; Sheep #604 Clint, 6 mg Morphine per day intrathecal, second infusion period after saline, Jan. 4, 2002, day of study 7
  Pain Score: 30%
[2]; Sheep #604 Clint, 6 mg Morphine per day intrathecal, second infusion period after saline, Jan. 5, 2002, day of study 8
  Pain Score: 30%
[2]; Sheep #604 Clint, 6 mg Morphine per day intrathecal, second infusion period after saline, Jan. 6, 2002, day of study 9
  Pain Score: 30%
[2]; Sheep #604 Clint, 6 mg Morphine per day intrathecal, second infusion period after saline, Jan. 7, 2002, day of study 10
  Pain Score: 30%
[2]; Sheep #604 Clint, 6 mg Morphine per day intrathecal, second infusion period after saline, Jan. 8, 2002, day of study 11
  Pain Score: 30%
[2]; Sheep #604 Clint, 6 mg Morphine per day intrathecal, second infusion period after saline, Jan. 9, 2002, day of study 12, pump then refilled with saline at 9:44 AM
  Pain Score: 15%
[2]; sheep #604 Clint, first 13 days of infusion at 6 mg/day
  average pain score: 43%
[2]; sheep #604 Clint, later infusions begun with either morphine or saline
  average pain scores: 30-50%
[2]; sheep #980 Dudley, 1 mg/day gradually increased to 6 mg/day
  average pain score: 76%
[2]; sheep #980 Dudley, 6.5 mg/day after 13 days of treatment
  Pain Score: 20%
[3]; intrathecal
  clinical behavior during therapy: restlessness, pain behaviors such as biting itself near the area of the catheter tip, and frequently laying down
[3]; lesion 0.8 cm (L)×0.5 cm (W)×0.3 cm (Depth)
  necropsy, spinal cord: cavitated lesion in the spinal cord in front of the catheter tip
[1]; in vivo, iv
  approximate equipotent dose, IV: 200
[1]; in vivo, po
  approximate equipotent dose, PO: 600
[1]; in vivo
  approximate equipotent dose, IT: 10
